Results as given in patent publication US10379016B1, “Apparatus for inoculating agar plate” (priority 2018, dated 2019).

Test system: S. aureus strain ATCC 29213
Assay: Antimicrobial susceptibility test by disc diffusion method (zone of inhibition)
Type: cell-based
Details: microbial concentration 1 × 10^8 CFU/ml, 35-37° C., 18-20 h, NZI = No zone of inhibition; for Testing for zone of inhibition; Method of Inoculation: Swabbing: Mueller-Hinton agar plate inoculated by cotton swab; for Testing for zone of inhibition; Method of Inoculation: Apparatus, Double actuation / Testing for zone of inhibition; Method of Inoculation: Apparatus, Single actuation: Mueller-Hinton agar plate spray-inoculated with apparatus
Procedure: In an experiment, Mueller-Hinton Agar plates were prepared. Forty grams of Mueller-Hinton Agar (MHA) was suspended in 1 liter distilled water and then boiled to dissolve the powder completely. The medium was sterilized by autoclaving at 121° C. for 15 min. After autoclaving, the medium was cooled to 45° C. and poured 25 mL molten agar into sterile 90 mm diameter Petri dishes (petri plates) to give a depth of about 4 mm. The surface of the agar was dried to remove excess moisture before use.
The suspension density was measured by using an UV spectrophotometer. The density of the suspension was adjusted to McFarland 0.5 by addition of saline or more organisms. The number of colony forming units (CFU/ml) in the culture samples plays an important role in the incubation of the agar plates. For colony isolation, diluted microbial suspension (about 1-2×10^3 CFU/ml) can be sprayed over agar plate.
For comparison, some agar plates were inoculated by cotton swab. A sterile cotton swab was dipped into the bacterial suspension (1-2×10^8 CFU/ml) and the excess fluid removed by turning the swab against the inside of the tube to avoid over-inoculation of plates. The inoculum was spread evenly over the entire surface of the agar plate by swabbing in three directions.
Other agar plates were inoculated by using the present apparatus. The agar plates were inoculated with inoculum of bacterial suspension (1-2×10^8 CFU/ml). The bacterial suspension was filled in the reservoir of the present apparatus and then sprayed uniformly using the atomizer over an agar plate held inside the spray chamber using the atomizer.
Antimicrobial susceptibility tests of the S. aureus strain ATCC 29213 was determined by the disc diffusion method according to the recommendations and guidelines of Clinical Laboratory Standard Institutes (CLSI M100-S24; 2014). A panel of commercial antibiotic discs comprising Gentamicin (GM), Amikacin (AN), Chloramphenicol (C), Imipenem (IPM), Tetracycline (TE), Cefepime (FEP), Sulfamethoxazole/trimethoprim (SXT), Aztreonam (ATM) was used for susceptibility testing. All commercial antibiotic discs were purchased from BBL (Becton Dickinson, USA).
The predetermined panel of antimicrobial disks was applied firmly on the surface of inoculated Mueller-Hinton agar media by using a disc dispenser device.
Within 15 min of application of antimicrobial disks, the plates were inverted and incubated aerobically at 35-37° C. for 18-20 h.
After incubation, inhibition zones were read at the point where no obvious growth is detected by the unaided eye when the plate was held about 30 cm from the eye. The inhibition zone diameters were measured to the nearest millimeter with a ruler. The plates were read from the back of the plate with reflected light against a dark background. Zone diameters of antibiotics in swab inoculated plate were compared with zone diameter in apparatus-inoculated plates.

Compound | Testing for zone of inhibition; Method of Inoculation: Swabbing | Testing for zone of inhibition; Method of Inoculation: Apparatus, Double actuation | Testing for zone of inhibition; Method of Inoculation: Apparatus, Single actuation
NCC[C@H](O)C(=O)N[C@@H]1C[C@H](N)[C@@H](O[C@H]2O[C@H](CN)[C@@H](O)[C@H](O)[C@H]2O)[C@H](O)[C@H]1O[C@H]1O[C@H](CO)[C@@H](O)[C@H](N)[C@H]1O [AN, Amikacin] | 22 mm | 23 mm | 26 mm
C[C@H]1[C@H](NC(=O)/C(=N\OC(C)(C)C(=O)O)c2csc(N)n2)C(=O)N1S(=O)(=O)O [ATM, Aztreonam] | NZI | NZI | NZI
O=C(N[C@H](CO)[C@H](O)c1ccc([N+](=O)[O-])cc1)C(Cl)Cl [C, Chloramphenicol] | 21 mm | 22 mm | 22 mm
CO/N=C(\C(=O)N[C@@H]1C(=O)N2C(C(=O)[O-])=C(C[N+]3(C)CCCC3)CS[C@H]12)c1csc(N)n1 [FEP, Cefepime] | NZI | NZI | NZI
C[C@@H](O)[C@H]1C(=O)N2C(C(=O)O)=C(SCCN=CN)C[C@H]12 [IPM, Imipenem] | 38 mm | 38 mm | 38 mm
CN(C)[C@@H]1C(O)=C(C(N)=O)C(=O)[C@@]2(O)C(O)=C3C(=O)c4c(O)cccc4[C@@](C)(O)[C@H]3C[C@@H]12 [TE, Tetracycline] | 22 mm | 24 mm | 25 mm
Gentamicin [GM] | 21 mm | 22 mm | 22 mm
